Laboratory results reported in the NIST ThermoML archive (doi:10.1021/je700321s).
± gives the expanded uncertainty stated by the source.

Assay: xn = mol fraction of the nth substance listed
Details: Liquid, Vibrating tube method

CC(C)O [propan-2-ol] + O=C=O
Details | mass density [kg/m3]
323.05 K, 7910 kPa, x2 = 0.6086 | 781.7 ± 1.5
323.05 K, 8002 kPa, x2 = 0.139 | 777.6 ± 0.8
323.05 K, 8009 kPa, x2 = 0.6086 | 782.2 ± 1.6
323.05 K, 8208 kPa, x2 = 0.6086 | 783.1 ± 0.8
323.05 K, 8404 kPa, x2 = 0.6086 | 784.1 ± 0.8
323.05 K, 8527 kPa, x2 = 0.139 | 778.3 ± 0.8
323.05 K, 8528 kPa, x2 = 0.9715 | 303.9 ± 1.8
323.05 K, 8607 kPa, x2 = 0.6086 | 785 ± 0.8
323.05 K, 8800 kPa, x2 = 0.6086 | 785.8 ± 0.8
323.05 K, 9004 kPa, x2 = 0.6086 | 786.7 ± 0.8
323.05 K, 9031 kPa, x2 = 0.9715 | 381.9 ± 2.7
323.05 K, 9033 kPa, x2 = 0.139 | 778.8 ± 0.8
323.05 K, 9107 kPa, x2 = 0.9492 | 526.2 ± 2.6
323.05 K, 9301 kPa, x2 = 0.6086 | 788 ± 0.8
323.05 K, 9400 kPa, x2 = 0.9492 | 575.3 ± 2.3
323.05 K, 9501 kPa, x2 = 0.6086 | 788.9 ± 0.8
323.05 K, 9519 kPa, x2 = 0.139 | 779.4 ± 0.8
323.05 K, 9535 kPa, x2 = 0.9715 | 467.3 ± 2.8
323.05 K, 9702 kPa, x2 = 0.6086 | 789.8 ± 0.8
323.05 K, 9710 kPa, x2 = 0.9492 | 607 ± 1.1
323.05 K, 9805 kPa, x2 = 0.6086 | 790.2 ± 0.8
323.05 K, 10015 kPa, x2 = 0.9492 | 628.2 ± 1.7
323.05 K, 10046 kPa, x2 = 0.9715 | 540 ± 2.1
323.05 K, 10301 kPa, x2 = 0.9492 | 644.3 ± 0.9
323.05 K, 10501 kPa, x2 = 0.9715 | 577.6 ± 1.6
323.05 K, 10600 kPa, x2 = 0.9492 | 658.2 ± 1.4
323.05 K, 10904 kPa, x2 = 0.9492 | 670.3 ± 1.3
323.05 K, 11011 kPa, x2 = 0.9715 | 612.9 ± 1.5
323.05 K, 11211 kPa, x2 = 0.9492 | 681.1 ± 1.3
323.05 K, 11508 kPa, x2 = 0.9492 | 689.9 ± 1.3
323.05 K, 11512 kPa, x2 = 0.9715 | 638.9 ± 1.3
323.05 K, 11807 kPa, x2 = 0.9492 | 698.3 ± 1.2
323.05 K, 12028 kPa, x2 = 0.9715 | 660.4 ± 1.2
323.05 K, 12106 kPa, x2 = 0.9492 | 705.9 ± 1.1
323.05 K, 12404 kPa, x2 = 0.9492 | 712.6 ± 1.1
323.05 K, 12516 kPa, x2 = 0.9715 | 677 ± 1.1
323.05 K, 12703 kPa, x2 = 0.9492 | 719.2 ± 1.1
323.05 K, 13006 kPa, x2 = 0.9492 | 725.5 ± 1
323.05 K, 13014 kPa, x2 = 0.9715 | 691.5 ± 1
323.05 K, 13309 kPa, x2 = 0.9492 | 731.4 ± 1
323.05 K, 13558 kPa, x2 = 0.9715 | 705.3 ± 1
323.05 K, 13608 kPa, x2 = 0.9492 | 736.7 ± 1
323.05 K, 13907 kPa, x2 = 0.9492 | 742 ± 1
323.05 K, 14003 kPa, x2 = 0.9715 | 715.4 ± 1
323.05 K, 14210 kPa, x2 = 0.9492 | 746.8 ± 1
323.05 K, 14504 kPa, x2 = 0.9492 | 751.1 ± 0.9
323.05 K, 14516 kPa, x2 = 0.9715 | 725.9 ± 1
323.05 K, 14804 kPa, x2 = 0.9492 | 755.1 ± 0.9
323.05 K, 15024 kPa, x2 = 0.9715 | 735.4 ± 0.9
323.05 K, 15506 kPa, x2 = 0.9715 | 743.6 ± 0.8
323.06 K, 8724 kPa, x2 = 0.7943 | 745.3 ± 2
323.06 K, 8802 kPa, x2 = 0.7943 | 746.6 ± 1.8
323.06 K, 8905 kPa, x2 = 0.7943 | 747.9 ± 1.8
323.06 K, 9005 kPa, x2 = 0.7943 | 749.2 ± 0.9
323.06 K, 9204 kPa, x2 = 0.7943 | 751.6 ± 0.9
323.06 K, 9410 kPa, x2 = 0.7943 | 753.9 ± 0.8
323.06 K, 9606 kPa, x2 = 0.7943 | 756.2 ± 0.9
323.06 K, 9792 kPa, x2 = 0.7943 | 758.2 ± 0.9
323.06 K, 10001 kPa, x2 = 0.7943 | 760.2 ± 0.9
323.06 K, 10310 kPa, x2 = 0.7943 | 763.1 ± 0.9
323.07 K, 4004 kPa, x2 = 0.2003 | 775.4 ± 0.8
323.07 K, 4307 kPa, x2 = 0.2003 | 775.8 ± 0.8
323.07 K, 4497 kPa, x2 = 0.2003 | 776.1 ± 0.8
323.07 K, 4802 kPa, x2 = 0.2003 | 776.6 ± 0.8
323.07 K, 5014 kPa, x2 = 0.2003 | 776.9 ± 0.8
323.07 K, 5510 kPa, x2 = 0.2003 | 777.5 ± 0.8
323.07 K, 6029 kPa, x2 = 0.2003 | 778.3 ± 0.8
323.07 K, 6513 kPa, x2 = 0.2003 | 779 ± 0.8
323.07 K, 7000 kPa, x2 = 0.2003 | 779.7 ± 0.8
323.07 K, 7519 kPa, x2 = 0.2003 | 780.5 ± 0.8
323.07 K, 8013 kPa, x2 = 0.2003 | 781.1 ± 0.8
323.07 K, 8543 kPa, x2 = 0.2003 | 781.8 ± 0.8
323.07 K, 9139 kPa, x2 = 0.2003 | 782.5 ± 0.8
323.07 K, 9497 kPa, x2 = 0.2003 | 783 ± 0.8
323.07 K, 10068 kPa, x2 = 0.2003 | 783.8 ± 0.8
332.97 K, 9739 kPa, x2 = 0.7943 | 686.8 ± 0.8
332.97 K, 9804 kPa, x2 = 0.7943 | 689.2 ± 1.1
332.97 K, 9901 kPa, x2 = 0.7943 | 691.4 ± 1.2
332.97 K, 10001 kPa, x2 = 0.7943 | 693.5 ± 1.4
332.97 K, 10101 kPa, x2 = 0.7943 | 695.6 ± 1.6
332.97 K, 10201 kPa, x2 = 0.7943 | 697.8 ± 1.9
332.97 K, 10302 kPa, x2 = 0.7943 | 699.9 ± 2.1
332.97 K, 10404 kPa, x2 = 0.7943 | 701.7 ± 1
332.97 K, 10507 kPa, x2 = 0.7943 | 703.7 ± 1.5
332.97 K, 10606 kPa, x2 = 0.7943 | 705.4 ± 1.8
332.97 K, 10808 kPa, x2 = 0.7943 | 708.9 ± 1.3
332.97 K, 11007 kPa, x2 = 0.7943 | 712 ± 1
332.97 K, 11204 kPa, x2 = 0.7943 | 715 ± 0.9
332.97 K, 11404 kPa, x2 = 0.7943 | 717.8 ± 0.9
332.97 K, 11607 kPa, x2 = 0.7943 | 720.5 ± 0.9
332.97 K, 11805 kPa, x2 = 0.7943 | 722.9 ± 0.9
332.97 K, 12004 kPa, x2 = 0.7943 | 725.3 ± 0.8
332.99 K, 2861 kPa, x2 = 0.139 | 759.8 ± 0.8
332.99 K, 3000 kPa, x2 = 0.139 | 760 ± 0.8
332.99 K, 3297 kPa, x2 = 0.139 | 760.4 ± 0.8
332.99 K, 3495 kPa, x2 = 0.139 | 760.7 ± 0.8
332.99 K, 4008 kPa, x2 = 0.139 | 761.5 ± 0.8
332.99 K, 4509 kPa, x2 = 0.139 | 762.2 ± 0.8
332.99 K, 5030 kPa, x2 = 0.139 | 762.8 ± 0.8
332.99 K, 6502 kPa, x2 = 0.139 | 764.9 ± 0.8
332.99 K, 7005 kPa, x2 = 0.139 | 765.6 ± 0.8
332.99 K, 7501 kPa, x2 = 0.139 | 766.3 ± 0.8
332.99 K, 8010 kPa, x2 = 0.139 | 766.9 ± 0.8
332.99 K, 8521 kPa, x2 = 0.139 | 767.6 ± 0.8
332.99 K, 9040 kPa, x2 = 0.139 | 768.3 ± 0.8
332.99 K, 9511 kPa, x2 = 0.139 | 768.8 ± 0.8
332.99 K, 9974 kPa, x2 = 0.139 | 769.5 ± 0.8
332.99 K, 10561 kPa, x2 = 0.9492 | 502.4 ± 1.2
332.99 K, 10601 kPa, x2 = 0.9492 | 506.6 ± 1.2
332.99 K, 10709 kPa, x2 = 0.9492 | 517.4 ± 1.1
332.99 K, 10810 kPa, x2 = 0.9492 | 526.9 ± 1
332.99 K, 10910 kPa, x2 = 0.9492 | 536.2 ± 1
332.99 K, 11209 kPa, x2 = 0.9492 | 560.9 ± 1
332.99 K, 11503 kPa, x2 = 0.9492 | 580 ± 1
332.99 K, 11803 kPa, x2 = 0.9492 | 596 ± 0.9
332.99 K, 12102 kPa, x2 = 0.9492 | 611.4 ± 0.9
332.99 K, 12404 kPa, x2 = 0.9492 | 624.7 ± 0.9
332.99 K, 12705 kPa, x2 = 0.9492 | 635.9 ± 0.9
332.99 K, 13010 kPa, x2 = 0.9492 | 645.6 ± 0.9
332.99 K, 13302 kPa, x2 = 0.9492 | 654.5 ± 0.9
332.99 K, 13603 kPa, x2 = 0.9492 | 663.6 ± 0.9
332.99 K, 13906 kPa, x2 = 0.9492 | 671.7 ± 0.9
332.99 K, 14213 kPa, x2 = 0.9492 | 678.9 ± 0.9
332.99 K, 14513 kPa, x2 = 0.9492 | 684.7 ± 0.8
333.02 K, 7301 kPa, x2 = 0.4248 | 770.1 ± 0.8
333.02 K, 7408 kPa, x2 = 0.4248 | 770.5 ± 0.8
333.02 K, 7506 kPa, x2 = 0.4248 | 770.6 ± 0.8
333.02 K, 7613 kPa, x2 = 0.4248 | 771 ± 0.8
333.02 K, 7806 kPa, x2 = 0.4248 | 771.4 ± 0.8
333.02 K, 8005 kPa, x2 = 0.4248 | 772 ± 0.8
333.02 K, 8209 kPa, x2 = 0.4248 | 772.6 ± 0.8
333.02 K, 8226 kPa, x2 = 0.6086 | 753.6 ± 0.8
